# Several values for one entry are separate records, joined by “and”; a condition that tells them apart may be missing. Equal values may be shown once. Toxic doses and inconclusive results are not listed. *1 amine or outer side, *2 acyl side, *3 side chain or, on linkers, in order; H or OH if unused. Where a SMILES comes first, the peptide text is derived from it. Bridges are numbered along the chain shown (N, C = ends). Roman numbers before positions name the chains, in order. [ ]: non-standard residue; d: D form. Actinocin(9to1) = Cc1c2oc3c(C)ccc(C(=O)[*:1])c3nc-2c(C(=O)[*:2])c(N)c1=O; aThr = C[C@H](O)[C@H](N)C(=O)O; NMeV = CN[C@H](C(=O)O)C(C)C; Sar = CNCC(=O)O
# Tested on: BDF1 mice, L1210 Methyl-GAG-resistant leukemia, survival T/C
# Assay: NCI In Vivo Anticancer Drug Screen. Data for tumor model L1210 Leukemia resistant to Methyl-GAG; NSC 32946 (subcutaneous) in B6D2F1 (BDF1) mice
# Details: endpoint: mean survival time, higher = longer survival
# Protocol: The antitumor activity of compounds was measured in mice bearing transplantable tumors. Survival or tumor size were measured and the results are expressed as the measurement made in the treated group (T) divided by the measurement made in the vehicle treated control group (C). The tumor model used in this assay is L1210 Leukemia resistant to Methyl-GAG; NSC 32946 (subcutaneous) in B6D2F1 (BDF1) mice
# [1] = dose: 12.5 mg/kg/injection, schedule: Q01DX Z (ip), vehicle: other
# [2] = dose: 50.0 mg/kg/injection, schedule: Q01DX Z (ip), vehicle: other
# [3] = dose: 100.0 mg/kg/injection, schedule: Q01DX Z (ip), vehicle: other
# [4] = dose: 200.0 mg/kg/injection, schedule: Q01DX Z (ip), vehicle: other
# [5] = dose: 6.25 mg/kg/injection, schedule: Q01DX Z (ip), vehicle: carboxymethylcellulose (CMC)
# [6] = dose: 12.5 mg/kg/injection, schedule: Q01DX Z (ip), vehicle: carboxymethylcellulose (CMC)
# [7] = dose: 25.0 mg/kg/injection, schedule: Q01DX Z (ip), vehicle: carboxymethylcellulose (CMC)
# [8] = dose: 50.0 mg/kg/injection, schedule: Q01DX Z (ip), vehicle: carboxymethylcellulose (CMC)
# [9] = dose: 100.0 mg/kg/injection, schedule: Q01DX Z (ip), vehicle: carboxymethylcellulose (CMC)
# [10] = dose: 200.0 mg/kg/injection, schedule: Q01DX Z (ip), vehicle: carboxymethylcellulose (CMC)
# [11] = dose: 400.0 mg/kg/injection, schedule: Q01DX Z (ip), vehicle: carboxymethylcellulose (CMC)
# [12] = dose: 25.0 mg/kg/injection, schedule: Q01DX Z (ip), vehicle: other
# [13] = dose: 400.0 mg/kg/injection, schedule: Q01DX Z (ip), vehicle: other
compound,measurement,setting,value
S=c1nc[nH]c2nc[nH]c12,T/C,[1],107 % of control
same,T/C,"dose: 37.5 mg/kg/injection, schedule: Q01DX Z (ip), vehicle: other",252 % of control
same,T/C,[2],153 % of control and 192 % of control
same,T/C,"dose: 75.0 mg/kg/injection, schedule: Q01DX Z (ip), vehicle: other",157 % of control
same,T/C,[3],164 % of control
same,T/C,[4],97 % of control and 119 % of control
same,T/C,"dose: 300.0 mg/kg/injection, schedule: Q01DX Z (ip), vehicle: other",98 % of control
Cn1c(N)nc2nc[nH]c2c1=S,T/C,"dose: 1.6 mg/kg/injection, schedule: Q01DX Z (ip), vehicle: carboxymethylcellulose (CMC)",98 % of control
same,T/C,"dose: 3.1 mg/kg/injection, schedule: Q01DX Z (ip), vehicle: carboxymethylcellulose (CMC)",100 % of control and 104 % of control
same,T/C,[5],97 % of control and 102 % of control
same,T/C,[6],93 % of control and 98 % of control and 102 % of control
same,T/C,[7],102 % of control
same,T/C,[8],100 % of control and 111 % of control
same,T/C,[9],101 % of control
same,T/C,[10],97 % of control
Nc1nc(SCc2ccccc2)c2[nH]cnc2n1,T/C,[5],104 % of control
same,T/C,[6],154 % of control
N=[N+]=CC(=O)OCC(N)C(=O)O (stereo not drawn),T/C,"dose: 1.56 mg/kg/injection, schedule: Q01DX Z (ip), vehicle: saline",104 % of control
same,T/C,"dose: 3.12 mg/kg/injection, schedule: Q01DX Z (ip), vehicle: saline",104 % of control
same,T/C,"dose: 4.7 mg/kg/injection, schedule: Q01DX Z (ip), vehicle: saline",100 % of control
same,T/C,"dose: 12.5 mg/kg/injection, schedule: Q01DX Z (ip), vehicle: saline",156 % of control and 150 % of control
same,T/C,"dose: 18.8 mg/kg/injection, schedule: Q01DX Z (ip), vehicle: saline",104 % of control
same,T/C,"dose: 25.0 mg/kg/injection, schedule: Q01DX Z (ip), vehicle: saline",116 % of control
N#CCSc1ncnc2nc[nH]c12,T/C,[6],101 % of control
same,T/C,[7],110 % of control
same,T/C,[8],123 % of control
Cn1cnc([N+](=O)[O-])c1Sc1ncnc2nc[nH]c12,T/C,[6],105 % of control
same,T/C,[7],103 % of control
same,T/C,[8],124 % of control
same,T/C,[9],88 % of control
O=C(Nc1ccc(C2=NCCN2)cc1)c1ccc(C(=O)Nc2ccc(C3=NCCN3)cc2)cc1,T/C,[7],98 % of control
same,T/C,[8],98 % of control
same,T/C,[9],124 % of control
same,T/C,[10],236 % of control
same,T/C,[11],104 % of control
S=P(N1CC1)(N1CC1)N1CC1,T/C,"dose: 0.62 mg/kg/injection, schedule: Q01DX Z (ip), vehicle: saline",111 % of control
same,T/C,"dose: 5.0 mg/kg/injection, schedule: Q01DX Z (ip), vehicle: saline",150 % of control
same,T/C,"dose: 10.0 mg/kg/injection, schedule: Q01DX Z (ip), vehicle: saline",110 % of control
C[C@@H]1C[C@@H]([C@H](O)CC2CC(=O)NC(=O)C2)C(=O)[C@@H](C)C1,T/C,"dose: 9.4 mg/kg/injection, schedule: Q01DX Z (ip), vehicle: water",90 % of control
same,T/C,"dose: 12.5 mg/kg/injection, schedule: Q01DX Z (ip), vehicle: water",114 % of control and 122 % of control (2×)
same,T/C,"dose: 18.8 mg/kg/injection, schedule: Q01DX Z (ip), vehicle: water",93 % of control
same,T/C,"dose: 25.0 mg/kg/injection, schedule: Q01DX Z (ip), vehicle: water",156 % of control
same,T/C,"dose: 37.5 mg/kg/injection, schedule: Q01DX Z (ip), vehicle: water",124 % of control
same,T/C,"dose: 50.0 mg/kg/injection, schedule: Q01DX Z (ip), vehicle: water",108 % of control
Nc1nc(N)c2nc(CNc3ccc(C(=O)NC(CCC(=O)O)C(=O)O)cc3)cnc2n1 (stereo not drawn),T/C,"dose: 2.0 micrograms/kg/injection, schedule: Q01DX Z (ip), vehicle: alkali diluted with saline",98 % of control
same,T/C,"dose: 4.0 micrograms/kg/injection, schedule: Q01DX Z (ip), vehicle: alkali diluted with saline",100 % of control
same,T/C,"dose: 16.0 micrograms/kg/injection, schedule: Q01DX Z (ip), vehicle: alkali diluted with saline",110 % of control
same,T/C,"dose: 31.0 micrograms/kg/injection, schedule: Q01DX Z (ip), vehicle: alkali diluted with saline",88 % of control
same,T/C,"dose: 63.0 micrograms/kg/injection, schedule: Q01DX Z (ip), vehicle: alkali diluted with saline",187 % of control
same,T/C,"dose: 125.0 micrograms/kg/injection, schedule: Q01DX Z (ip), vehicle: alkali diluted with saline",94 % of control
O=c1[nH]cc(F)c(=O)[nH]1,T/C,"dose: 6.25 mg/kg/injection, schedule: Q01DX Z (ip), vehicle: saline",102 % of control
same,T/C,"dose: 100.0 mg/kg/injection, schedule: Q01DX Z (ip), vehicle: saline",110 % of control
Cc1n[nH]c(=O)[nH]c1=O,T/C,"dose: 0.8 mg/kg/injection, schedule: Q01DX Z (ip), vehicle: other",100 % of control
same,T/C,"dose: 1.6 mg/kg/injection, schedule: Q01DX Z (ip), vehicle: other",102 % of control
same,T/C,"dose: 3.1 mg/kg/injection, schedule: Q01DX Z (ip), vehicle: other",98 % of control
same,T/C,"dose: 6.25 mg/kg/injection, schedule: Q01DX Z (ip), vehicle: other",120 % of control
same,T/C,"dose: 6.3 mg/kg/injection, schedule: Q01DX Z (ip), vehicle: other",100 % of control
same,T/C,[1],101 % of control
same,T/C,[12],100 % of control
same,T/C,[2],95 % of control and 103 % of control
same,T/C,[3],91 % of control
same,T/C,[4],88 % of control
same,T/C,[13],89 % of control
C[C@]12C=CC(=O)C=C1CC[C@@H]1[C@@H]2[C@@H](O)C[C@@]2(C)[C@H]1CC[C@]2(O)C(=O)CO,T/C,"dose: 62.5 mg/kg/injection, schedule: Q01DX Z (sc), vehicle: steriod suspending solution",104 % of control
same,T/C,"dose: 125.0 mg/kg/injection, schedule: Q01DX Z (sc), vehicle: steriod suspending solution",104 % of control and 124 % of control
same,T/C,"dose: 250.0 mg/kg/injection, schedule: Q01DX Z (sc), vehicle: steriod suspending solution",94 % of control
"Cc1c2oc3c(C)ccc(C(=O)N[C@@H]4C(=O)N[C@H](C(C)C)C(=O)N5CCC[C@H]5C(=O)N(C)CC(=O)N(C)[C@@H](C(C)C)C(=O)O[C@H]4C)c3nc-2c(C(=O)N[C@@H]2C(=O)N[C@H](C(C)C)C(=O)N3CCC[C@H]3C(=O)N(C)CC(=O)N(C)[C@@H](C(C)C)C(=O)O[C@H]2C)c(N)c1=O (I: [aThr][dV]P[Sar][NMeV] / II: [aThr][dV]P[Sar][NMeV]; ester I:1-I:C, II:1-II:C; linker I:N-II:N via Actinocin(9to1))",T/C,"dose: 0.8 micrograms/kg/injection, schedule: Q01DX Z (ip), vehicle: saline",96 % of control
same,T/C,"dose: 6.4 micrograms/kg/injection, schedule: Q01DX Z (ip), vehicle: saline",93 % of control
same,T/C,"dose: 25.6 micrograms/kg/injection, schedule: Q01DX Z (ip), vehicle: saline",96 % of control
same,T/C,"dose: 51.2 micrograms/kg/injection, schedule: Q01DX Z (ip), vehicle: saline",98 % of control
same,T/C,"dose: 102.0 micrograms/kg/injection, schedule: Q01DX Z (ip), vehicle: saline",90 % of control
CC(=O)[C@H]1CC[C@H]2[C@@H]3C[C@H](C)C4=CC(=O)CC[C@]4(C)[C@H]3C(=O)C[C@]12C,T/C,"dose: 25.0 mg/kg/injection, schedule: Q01DX Z (sc), vehicle: steriod suspending solution",97 % of control
same,T/C,"dose: 50.0 mg/kg/injection, schedule: Q01DX Z (sc), vehicle: steriod suspending solution",95 % of control and 103 % of control
same,T/C,"dose: 100.0 mg/kg/injection, schedule: Q01DX Z (sc), vehicle: steriod suspending solution",97 % of control and 103 % of control and 114 % of control
same,T/C,"dose: 200.0 mg/kg/injection, schedule: Q01DX Z (sc), vehicle: steriod suspending solution",90 % of control and 105 % of control and 111 % of control
same,T/C,"dose: 400.0 mg/kg/injection, schedule: Q01DX Z (sc), vehicle: steriod suspending solution",105 % of control and 112 % of control
same,T/C,"dose: 800.0 mg/kg/injection, schedule: Q01DX Z (sc), vehicle: steriod suspending solution",120 % of control
O=C1C(NC(=O)C2CCCCC2)=C(N2CC2)C(=O)C(NC(=O)C2CCCCC2)=C1N1CC1,T/C,[7],100 % of control
same,T/C,[8],96 % of control
same,T/C,[9],114 % of control
same,T/C,[10],108 % of control and 118 % of control
same,T/C,[11],120 % of control
same,T/C,"dose: 800.0 mg/kg/injection, schedule: Q01DX Z (ip), vehicle: carboxymethylcellulose (CMC)",104 % of control
CSc1ncnc2c1ncn2C1OC(CO)C(O)C1O (stereo not drawn),T/C,[5],102 % of control
same,T/C,[6],107 % of control
same,T/C,[8],97 % of control
Nc1nc2n[nH]nc2c(=O)[nH]1,T/C,[12],159 % of control
same,T/C,[3],162 % of control and 168 % of control
same,T/C,[13],177 % of control
CCOC(=O)NP(=O)(N1CC1(C)C)N1CC1(C)C (stereo not drawn),T/C,"dose: 62.5 mg/kg/injection, schedule: Q01DX Z (ip), vehicle: carboxymethylcellulose (CMC)",95 % of control
same,T/C,"dose: 125.0 mg/kg/injection, schedule: Q01DX Z (ip), vehicle: carboxymethylcellulose (CMC)",95 % of control
same,T/C,"dose: 250.0 mg/kg/injection, schedule: Q01DX Z (ip), vehicle: carboxymethylcellulose (CMC)",97 % of control
same,T/C,"dose: 500.0 mg/kg/injection, schedule: Q01DX Z (ip), vehicle: carboxymethylcellulose (CMC)",93 % of control

# — PubChem BioAssay AID306 (DTP/NCI, 2004)
